Read-outs that look alike come from different tables or passages of the source.
Assays:
Type in all cases: cell-based
HIV-1 strain 92HT599 = experiment: Antiviral activity against HIV-1 strain 92HT599 in MT2 cells (p24 estimation); settings: HIV-1 92HT599, ~96 hours
Method in brief: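 Percent inhibition versus vehicle controls came from p24 quantified in supernatant aliquots. These were taken after ~96 h incubation of compound (DMSO ≤1%) with MT2 cells infected at 10 TCID50/30,000 cells.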

HIV-1 pNL4-3 V7A = experiment: Antiviral activity against pNL4-3/V7A strain in MT4 cells (p24 estimation); settings: Human immunodeficiency virus 1, MT4, 96 h, read-out: pNL4-3 V7A IC50
Method in brief: (§1)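 MT4 cells infected with HIV-1 pNL4-3 WT or V7A (defined TCID50, 1.5 h, 37° C), plated at 3×10^4 cells/well with test compound, final DMSO ≤1%. After 4 days' culture, p24 in supernatant aliquots measured by kit.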

HIV-1 pNL4-3 WT = experiment: Antiviral activity against pNL4-3/WT strain in MT4 cells (p24 estimation); settings: Human immunodeficiency virus 1, MT4, 96 h, read-out: pNL4-3 WT IC50
Method in brief: as §1

[1] = Human immunodeficiency virus 1, 0% serum binding assay, read-out: IC50 0% serum
[2] = Human immunodeficiency virus 1, 40% serum binding assay, read-out: IC50 40% serum

Cc1ccc(C(=O)NC2(C(=O)N[C@@]34CC[C@]5(C)[C@H](CC[C@@H]6[C@@]7(C)CC[C@H](OC(=O)[C@H]8C[C@@H](C(=O)O)C8(C)C)C(C)(C)[C@@H]7CC[C@]65C)C3=C(C(C)C)C(=O)C4)CC2)cc1 [Example 40, (1R,3S)-3-((((3aR,5aR,5bR,7aR,9S,11aR,11bR,13aS)-1-isopropyl-5a,5b,8,8,11a-pentamethyl-3a-(1-(4-methylbenzamido)cyclopropane-1-carboxamido)-2-oxo-3,3a,4,5,5a,5b,6,7,7a,8,9,10,11,11a,11b,12,13,13a-octadecahydro-2H-cyclopenta[a]chrysen-9-yl)oxy)carbonyl)-2,2-dimethylcyclobutane-1-carboxylic acid]
IC50 (HIV-1 strain 92HT599; [1]): < 3 nM | IC50 (HIV-1 strain 92HT599; [2]): < 50 nM | IC50 (HIV-1 pNL4-3 V7A): < 10 nM | IC50 (HIV-1 pNL4-3 WT): < 5 nM

CC(C)C1=C2[C@H]3CC[C@@H]4[C@@]5(C)CC[C@H](OC(=O)[C@H]6C[C@@H](C(=O)O)C6(C)C)C(C)(C)[C@@H]5CC[C@@]4(C)[C@]3(C)CC[C@@]2(NC(=O)C(C)(C)NC(=O)CN2CCS(=O)(=O)CC2)CC1=O [Example 34, (1R,3S)-3-((((3aR,5aR,5bR,7aR,9S,11aR,11bR,13aS)-3a-(2-(2-(1,1-dioxidothiomorpholino)acetamido)-2-methylpropanamido)-1-isopropyl-5a,5b,8,8,11a-pentamethyl-2-oxo-3,3a,4,5,5a,5b,6,7,7a,8,9,10,11,11a,11b,12,13,13a-octadecahydro-2H-cyclopenta[a]chrysen-9-yl)oxy)carbonyl)-2,2-dimethylcyclobutane-1-carboxylic acid]
IC50 (HIV-1 strain 92HT599; [1]): < 3 nM | IC50 (HIV-1 strain 92HT599; [2]): < 50 nM | IC50 (HIV-1 pNL4-3 V7A): 10 to 50 nM | IC50 (HIV-1 pNL4-3 WT): < 5 nM

CC(C)C1=C2[C@H]3CC[C@@H]4[C@@]5(C)CC[C@H](OC(=O)[C@H]6C[C@@H](C(=O)O)C6(C)C)C(C)(C)[C@@H]5CC[C@@]4(C)[C@]3(C)CC[C@@]2(NC(=O)C(C)(C)NC(=O)c2ccc(N3CCS(=O)(=O)CC3)cc2)CC1=O [Example 57, (1R,3S)-3-((((3aR,5aR,5bR,7aR,9S,11aR,11bR,13aS)-3a-(2-(4-(1,1-dioxidothiomorpholino)benzamido)-2-methylpropanamido)-1-isopropyl-5a,5b,8,8,11a-pentamethyl-2-oxo-3,3a,4,5,5a,5b,6,7,7a,8,9,10,11,11a,11b,12,13,13a-octadecahydro-2H-cyclopenta[a]chrysen-9-yl)oxy)carbonyl)-2,2-dimethylcyclobutane-1-carboxylic acid]
IC50 (HIV-1 strain 92HT599; [1]): < 3 nM | IC50 (HIV-1 strain 92HT599; [2]): < 50 nM | IC50 (HIV-1 pNL4-3 V7A): 10 to 50 nM | IC50 (HIV-1 pNL4-3 WT): 5.01 to 10 nM

CC(C)C1=C2[C@H]3CC[C@@H]4[C@@]5(C)CC[C@H](OC(=O)[C@H]6C[C@@H](C(=O)O)C6(C)C)C(C)(C)[C@@H]5CC[C@@]4(C)[C@]3(C)CC[C@@]2(NC(=O)C(C)(C)NC(=O)c2ccc(Cl)cc2)CC1=O [Example 1, (1R,3S)-3-((((3aR,5aR,5bR,7aR,9S,11aR,11bR,13aS)-3a-(2-(4-chlorobenzamido)-2-methylpropanamido)-1-isopropyl-5a,5b,8,8,11a-pentamethyl-2-oxo-3,3a,4,5,5a,5b,6,7,7a,8,9,10,11,11a,11b,12,13,13a-octadecahydro-2H-cyclopenta[a]chrysen-9-yl)oxy)carbonyl)-2,2-dimethylcyclobutane-1-carboxylic acid]
IC50 (HIV-1 strain 92HT599; [1]): < 3 nM | IC50 (HIV-1 strain 92HT599; [2]): < 50 nM | IC50 (HIV-1 pNL4-3 V7A): < 10 nM | IC50 (HIV-1 pNL4-3 WT): < 5 nM

Cc1nnc(-c2ccc(C(=O)NC(C)(C)C(=O)N[C@@]34CC[C@]5(C)[C@H](CC[C@@H]6[C@@]7(C)CC[C@H](OC(=O)[C@H]8C[C@@H](C(=O)O)C8(C)C)C(C)(C)[C@@H]7CC[C@]65C)C3=C(C(C)C)C(=O)C4)cc2)o1 [Example 56, (1R,3S)-3-((((3aR,5aR,5bR,7aR,9S,11aR,11bR,13aS)-1-isopropyl-5a,5b,8,8,11a-pentamethyl-3a-(2-methyl-2-(4-(5-methyl-1,3,4-oxadiazol-2-yl)benzamido)propanamido)-2-oxo-3,3a,4,5,5a,5b,6,7,7a,8,9,10,11,11a,11b,12,13,13a-octadecahydro-2H-cyclopenta[a]chrysen-9-yl)oxy)carbonyl)-2,2-dimethylcyclobutane-1-carboxylic acid]
IC50 (HIV-1 strain 92HT599; [1]): < 3 nM | IC50 (HIV-1 strain 92HT599; [2]): < 50 nM | IC50 (HIV-1 pNL4-3 V7A): 10 to 50 nM | IC50 (HIV-1 pNL4-3 WT): 5.01 to 10 nM

CC(C)C1=C2[C@H]3CC[C@@H]4[C@@]5(C)CC[C@H](OC(=O)[C@H]6C[C@@H](C(=O)O)C6(C)C)C(C)(C)[C@@H]5CC[C@@]4(C)[C@]3(C)CC[C@@]2(NC(=O)C(C)(C)NC(=O)c2ccc3[nH]c(-c4cnccn4)nc3c2)CC1=O [Example 15, (1R,3S)-3-((((3aR,5aR,5bR,7aR,9S,11aR,11bR,13aS)-1-isopropyl-5a,5b,8,8,11a-pentamethyl-3a-(2-methyl-2-(2-(pyrazin-2-yl)-1H-benzo[d]imidazole-5-carboxamido)propanamido)-2-oxo-3,3a,4,5,5a,5b,6,7,7a,8,9,10,11,11a,11b,12,13,13a-octadecahydro-2H-cyclopenta[a]chrysen-9-yl)oxy)carbonyl)-2,2-dimethylcyclobutane-1-carboxylic acid]
IC50 (HIV-1 strain 92HT599; [1]): < 3 nM | IC50 (HIV-1 strain 92HT599; [2]): < 50 nM | IC50 (HIV-1 pNL4-3 V7A): > 50 nM | IC50 (HIV-1 pNL4-3 WT): < 5 nM

CC(C)C1=C2[C@H]3CC[C@@H]4[C@@]5(C)CC[C@H](OC(=O)[C@H]6C[C@@H](C(=O)O)C6(C)C)C(C)(C)[C@@H]5CC[C@@]4(C)[C@]3(C)CC[C@@]2(NC(=O)C2(NC(=O)c3ccc(F)cc3)CC2)CC1=O [Example 39, (1R,3S)-3-((((3aR,5aR,5bR,7aR,9S,11aR,11bR,13aS)-3a-(1-(4-fluorobenzamido)cyclopropane-1-carboxamido)-1-isopropyl-5a,5b,8,8,11a-pentamethyl-2-oxo-3,3a,4,5,5a,5b,6,7,7a,8,9,10,11,11a,11b,12,13,13a-octadecahydro-2H-cyclopenta[a]chrysen-9-yl)oxy)carbonyl)-2,2-dimethylcyclobutane-1-carboxylic acid]
IC50 (HIV-1 strain 92HT599; [1]): < 3 nM | IC50 (HIV-1 strain 92HT599; [2]): < 50 nM | IC50 (HIV-1 pNL4-3 V7A): 10 to 50 nM | IC50 (HIV-1 pNL4-3 WT): 5.01 to 10 nM

CC(C)C1=C2[C@H]3CC[C@@H]4[C@@]5(C)CC[C@H](OC(=O)[C@H]6C[C@@H](C(=O)O)C6(C)C)C(C)(C)[C@@H]5CC[C@@]4(C)[C@]3(C)CC[C@@]2(NC(=O)C(C)(C)NS(C)(=O)=O)CC1=O [Example 63, sodium (1R,3S)-3-((((3aR,5aR,5bR,7aR,9S,11aR,11bR,13aS)-1-isopropyl-5a,5b,8,8,11a-pentamethyl-3a-(2-methyl-2-(methylsulfonamido)propanamido)-2-oxo-3,3a,4,5,5a,5b,6,7,7a,8,9,10,11,11a,11b,12,13,13a-octadecahydro-2H-cyclopenta[a]chrysen-9-yl)oxy)carbonyl)-2,2-dimethylcyclobutane-1-carboxylate]
IC50 (HIV-1 strain 92HT599; [1]): < 3 nM | IC50 (HIV-1 strain 92HT599; [2]): < 50 nM | IC50 (HIV-1 pNL4-3 V7A): > 50 nM | IC50 (HIV-1 pNL4-3 WT): > 10 nM

From patent publication US11034718B2, “C-3 novel triterpenone with C-17 reverse amide derivatives as HIV inhibitors” (HETERO LABS LIMITED, priority 2015, dated 2021)
